Test results: ChEMBL document CHEMBL1130371, “3-Substituted-4-hydroxy-7-chromanylacetic acid derivatives as antagonists of the leukotriene B4 (LTB4) receptor” (Bioorg Med Chem Lett, 1997); call rule not given here

What was measured:
[1] = target: Leukotriene B4 receptor (Homo sapiens, UniProt Q9NPC1+Q15722); test: Inhibition of LTB4 receptor induced chemotaxis of isolated human neutrophils; type: functional
[2] = target: Leukotriene B4 receptor (Cavia porcellus); test: Inhibition of leukotriene B4 (LTB4) binding to guinea pig spleen
[3] = species on record: Homo sapiens; test: Antagonistic activity was evaluated against LT B4 on human neutrophils; type: functional
[4] = species on record: Homo sapiens; test: Antagonistic activity was evaluated against LT D4 on human neutrophils; type: functional
[5] = species on record: Homo sapiens; test: Compound was evaluated for the inhibition of LTB4 receptor -induced chemotaxis of isolated human neutrophils; IA means inactive; type: functional
[6] = test system: Leukotriene B4 receptor (Cavia porcellus); test: Compound was evaluated for the inhibition of Leukotriene B4 (LTB4) receptor binding to guinea pig spleen derived receptor (GPS); IA means inactive

Row | SMILES | IC50 [1] | IC50 [2] | also measured
1 | O=C(O)c1ccc2c(c1)OC[C@H](Cc1ccccc1)[C@H]2O | > 100 µM | 20 µM | –
2 | CCC(CC)(C(=O)O)c1ccc2c(c1)OC[C@H](Cc1ccccc1)[C@H]2O | 0.17 µM | 0.29 µM | –
3 | CNC(=O)C(C)(C)c1ccc2c(c1)OC[C@H](Cc1ccccc1)[C@H]2O | 1.5 µM | > 100 µM | –
4 | O=C(O)C1(c2ccc3c(c2)OC[C@H](C(c2ccccc2)c2ccccc2)[C@H]3O)CCCC1 | 10 µM | 5.4 µM | –
5 | O=C(O)C1(c2ccc3c(c2)OC[C@H](Cc2ccc(C(F)(F)F)cc2)[C@H]3O)CCCC1 | 6 µM | 12 µM | –
6 | O=C(O)C1(c2ccc3c(c2)OC[C@H](Sc2ccccc2)[C@H]3O)CCCC1 | 0.5 µM | 0.56 µM | –
7 | CC(C(=O)O)c1ccc2c(c1)[C@H](O)[C@@H](Cc1ccccc1)CO2 (stereo partly drawn) | – | – | IC50 [5]: Not Active; IC50 [6]: Not Active
8 | CC(C)(C(=O)O)c1ccc2c(c1)OC[C@H](Cc1ccc(Cl)cc1)[C@H]2O | 5.4 µM | 4 µM | –
9 | O[C@H]1c2ccccc2OC[C@@H]1Cc1ccccc1 | > 50 µM | 100 µM | –
10 | O=C(O)C1(c2ccc3c(c2)OC[C@H](CCc2ccc(-c4ccccc4)cc2)[C@H]3O)CCCC1 | 5.8 µM | 3.2 µM | –
11 | O[C@H]1c2ccc(C3(C4N=NN=N4)CCCC3)cc2OC[C@@H]1C(c1ccccc1)C1CCCCC1 (stereo partly drawn) | 1.5 µM | 0.35 µM | –
12 | O=C(O)C1(c2ccc3c(c2)OC[C@H](Cc2ccc(F)cc2F)[C@H]3O)CCCC1 | 1 µM | 2 µM | –
13 | O=C(O)C1(c2ccc3c(c2)OC[C@H](Cc2ccc4ccccc4n2)[C@H]3O)CCCC1 | > 50 µM | 8.8 µM | –
14 | O=C(O)C1(c2ccc3c(c2)OC[C@H](CCc2ccccc2)[C@H]3O)CCCC1 | 0.3 µM | 0.49 µM | –
15 | O=C(O)C1(c2ccc3c(c2)OC[C@H](Cc2cccs2)[C@H]3O)CCCC1 | 0.33 µM | 0.65 µM | –
16 | O=C(O)C1(c2ccc3c(c2)OC[C@H](CCCc2ccccc2)[C@H]3O)CCCC1 | 4.2 µM | 2.7 µM | –
17 | O=C(O)C1(c2ccc3c(c2)OC[C@H](Cc2ccccc2)[C@H]3O)CCCC1 (stereo in doubt) | 1.1 µM | 3.4 µM | –
18 | CC(C)(C(=O)O)c1ccc2c(c1)OC[C@H](Cc1ccccc1)[C@H]2O (stereo in doubt; 6) | 2.4 µM | 1.2 µM | –
19 | O=C(O)C1(c2ccc3c(c2)OC[C@H](Cc2ccccc2)[C@H]3O)CCCC1 (stereo in doubt; 11) | 0.16 µM | 0.32 µM | –
20 | O=C(O)C1(c2ccc3c(c2)OC[C@H](Cc2ccccc2)[C@H]3O)CCCC1 (stereo in doubt; 12) | 0.078 µM | 0.42 µM | –
21 | O=C(O)C1(c2ccc3c(c2)OC[C@H](Cc2ccccc2)[C@H]3O)CCCC1 (stereo in doubt; 13) | 0.098 µM | 0.29 µM | –
22 | O=C(O)C1(c2ccc3c(c2)OC[C@H](Cc2ccccc2)[C@H]3O)CCCCC1 (stereo in doubt; 14) | 0.38 µM | 0.2 µM | –
23 | O=C(O)C1(c2ccc3c(c2)OC[C@H](Cc2ccccc2)[C@H]3O)CCCCC1 (stereo in doubt; 15) | 0.23 µM | 0.24 µM | –
24 | O=C(O)C1(c2ccc3c(c2)OC[C@H](Cc2ccccc2)[C@H]3O)CCCCC1 (stereo in doubt; 16) | 0.17 µM | 0.25 µM | –

Further lines, with some results ahead:

Row | IC50 [1] | IC50 [2] | SMILES | also measured
25 | 6.2 µM | 8 µM | CC(C)(C(=O)O)c1ccc2c(c1)OC[C@H](Cc1ccc(F)cc1F)[C@H]2O | –
26 | 25 µM | 17 µM | CC(C)(C(=O)O)c1ccc2c(c1)OC[C@H](Cc1ccccc1)C2 | –
27 | 16.4 µM | 13 µM | CC(C(=O)O)c1ccc2c(c1)OC[C@H](Cc1ccccc1)[C@H]2O (stereo partly drawn) | IC50 [3]: 0.79 µM; IC50 [4]: > 100 µM
28 | 9.4 µM | 6 µM | CC(C)(C(=O)O)c1ccc2c(c1)OC[C@H](Cc1cccc(F)c1)[C@H]2O | –
29 | > 50 µM | > 100 µM | OCCc1ccc2c(c1)OC[C@H](Cc1ccccc1)[C@H]2O | –
30 | 7.2 µM | 100 µM | CC(C)c1ccc2c(c1)OC[C@H](Cc1ccccc1)[C@H]2O | –
31 | > 50 µM | > 100 µM | OCc1ccc2c(c1)OC[C@H](Cc1ccccc1)[C@H]2O | –
32 | 12.2 µM | 53 µM | COc1cccc(C[C@H]2COc3cc(C(C)C(=O)O)ccc3[C@@H]2O)c1 (stereo partly drawn) | –
33 | 20 µM | 34 µM | CC(C)(C(=O)O)c1ccc2c(c1)OC[C@H](CC1CCCCC1)[C@H]2O | –
34 | 2.6 µM | 8 µM | CC(C)(C(=O)O)c1ccc2c(c1)OC[C@H](Cc1ccccn1)[C@H]2O | –
35 | 16 µM | 12 µM | O=C(O)CCc1ccc2c(c1)OC[C@H](Cc1ccccc1)[C@H]2O | –
36 | 18.5 µM | 12 µM | COc1ccc(C[C@H]2COc3cc(C(C)C(=O)O)ccc3[C@@H]2O)cc1 (stereo partly drawn) | –
37 | 1.7 µM | 40 µM | CC(C)(C(=O)N1CCCC1)c1ccc2c(c1)OC[C@H](Cc1ccccc1)[C@H]2O | –
38 | 14 µM | 2.7 µM | O=C(O)C1(c2ccc3c(c2)OC[C@H](Cc2ccccc2)[C@H]3O)CCC1 | –
39 | 12.5 µM | 40 µM | CC(C)(C(=O)O)c1ccc2c(c1)OC[C@H](Cc1ccccc1)[C@H]2O (stereo in doubt) | –
40 | 12 µM | 25 µM | O=C(O)Cc1ccc2c(c1)OC[C@H](Cc1ccccc1)[C@H]2O (stereo in doubt; 4) | –
41 | 34 µM | 30 µM | O=C(O)Cc1ccc2c(c1)OC[C@H](Cc1ccccc1)[C@H]2O (stereo in doubt; 5) | –
42 | 5.7 µM | 2.3 µM | CC(C)(C(=O)O)c1ccc2c(c1)OC[C@H](Cc1ccccc1)[C@H]2O (stereo in doubt; 7) | –
43 | 3.4 µM | 1.3 µM | CC(C)(C(=O)O)c1ccc2c(c1)OC[C@H](Cc1ccccc1)[C@H]2O (stereo in doubt; 8) | –
